Results as given in patent US9259467B2, “Mammalian receptors as targets for antibody and active vaccination therapy against mold infections” (Los Angeles Biomedical Research Institute at Harbor-UCLA …, priority 2009, dated 2016).

What was measured:
Format in all cases: cell-based, human
[1] = system: R. oryzae germlings on endothelial cells; assay: Differential fluorescence assay of adherence and endocytosis of R. oryzae germlings by endothelial cells; conditions: for Reduction of endothelial cell endocytosis of R. oryzae: phenanthroline 60 μM for 16 hours, cytochalasin D 200 nM
Protocol: The number of organisms endocytosed by endothelial cells or CHO cells was determined using a modification of a previously described differential fluorescence assay (Ibrahim et al., Infect Immun. 63(11):4368-4374 (1995)). Briefly, 12-mm glass coverslips in a 24-well cell culture plate were coated with fibronectin for at least 4 hours and seeded with endothelial or CHO cells until confluency. After washing twice with prewarmed HBSS, the cells were then infected with 10^5 cells of R. oryzae in RPMI 1640 medium that had been germinated for 1 hour. Following incubation for 3 hours, the cells were fixed in 3% paraformaldehyde and were stained for 1 hour with 1% Uvitex (a gift from Jay Isharani, Ciba-Geigy, Greensboro, N.C., USA), which specifically binds to the chitin of the fungal cell wall. After washing 3 times with PBS, the coverslips were mounted on a glass slide with a drop of ProLong Gold antifade reagent and sealed with nail polish. The total number of cell-associated organisms (i.e., germlings adhering to monolayer) was determined by phase-contrast microscopy. The same field was examined by epifluorescence microscopy, and the number of uninternalized germlings (which were brightly fluorescent) was determined. The number of endocytosed organisms was calculated by subtracting the number of fluorescent organisms from the total number of visible organisms. At least 400 organisms were counted in 20-40 different fields on each slide. Two slides per arm were used for each experiment, and the experiment was performed in triplicate on different days. […]
To determine the effects of chelating endothelial cell iron on interactions with R. oryzae, endothelial cells were incubated with different concentrations of phenanthroline for 16 hours. To prevent chelation of the radioisotope, ^51Cr was added to endothelial cells 24 hours prior to the addition of phenanthroline (Fratti et al., Infect Immun. 66(1):191-196 (1998)). To confirm that the effects of phenanthroline on R. oryzae-induced endocytosis by and damage of endothelial cells were due to chelation of endothelial cell iron, exogenous iron in the form of hemin was added to endothelial cells at a final concentration of 20 μM, 2 hours before phenanthroline (Fratti et al., supra). As a positive control for prevention of endocytosis, the microfilament disruptant cytochalasin D (Sigma-Aldrich) was added at a concentration of 200 nM simultaneously with R. oryzae germlings, and endocytosis was determined as above (Ibrahim et al., Infect Immun. 63(11):4368-4374 (1995)). […]

GRP78 transcript = assay: Quantification of GRP78 expression in endothelial cells by real time RT-PCR; conditions: for GRP78 expression: data not shown
Protocol: The transductions were performed according to the manufacturer's protocol. Briefly, 1.6×10^4 endothelial cells were seeded into 96-well plate and incubated for about 20 hours at 37° C. in a 5% CO2 incubator. Cells were infected with lentiviral particles at an MOI of 20 in the presence of 8 μg/ml polybrene (Sigma-Aldrich) overnight. The transduced cells were incubated in fresh M199 medium for 4 more days. Puromycin at 0.2 μg/ml was added to select for puromycin-resistant cell pools, which usually took approximately 10 days of incubating at 37° C. in 5% CO^2. The puromycin-resistant cells were passaged until an appropriate amount of cells was obtained for endocytosis or damage assays as above. Reduction of GRP78 expression was confirmed by using real time RT-PCR (see below).
For quantification of GRP78 expression in endothelial or CHO cells, real time RT-PCR was carried out using a Power SYBR Green Cells-to-CT kit (Applied Biosystems) to extract RNA from 2×10^4 cells. Primers to amplify GRP78 from endothelial cells and CHO cells were 5′-[…]-3′ (SEQ ID NO: 3) and 5′-[…]-3′ (SEQ ID NO: 4). Primers 5′-ACCATCTTCCAGGAGCGAG-3′ (SEQ ID NO: 5) and 5′-TAAGCAGTTGGTGGTGCAG-3′ (SEQ ID NO: 6) were used to amplify the housekeeping gene GAPDH, which was used as a control.
To study the effect of acidosis, endothelial cells exposed to different pHs, ranging from 6.8 to 7.4, were grown in MEM buffered with HEPES for 5 hours in the presence or absence of phenanthroline. Next, endothelial cells were washed twice with cold PBS, and GRP78 total expression was quantified by real-time RT-PCR. […] To study the effect of hyperosmolarity and statins on GRP78 expression, endothelial cells in MEM were incubated with 1, 4, or 8 mg/ml mannitol or 5, 20, or 40 μg/ml lovastatin for 20 hours. […] GRP78 expression, endocytosis, and damage assays were conducted as above.

GRP78 = assay: Cell surface expression of GRP78 on endothelial cells by FACS; conditions: high iron levels (0, 15, or 50 μM FeCl3 tested); flow cytometry
Protocol: Cell surface expression of GRP78 on endothelial cells exposed to varying concentrations of FeCl3 was quantified using FACS analysis. Briefly, endothelial cells grown in 25-cm flasks were dissociated using 1.5 ml enzyme-free dissociation buffer (Invitrogen). Cells were blocked with 50% goat serum, then stained with monoclonal anti-GRP78 Ab (BD Biosciences) at 1:100 for 1 hour. Endothelial cells were counterstained with ALEXA FLUOR 488-labeled anti-mouse IgG at 1:100 for 1 hour. Endothelial cells exposed to a similar concentration of FeCl3 or glucose and stained with an isotype matching control IgG (BD Biosciences) were used as negative control. A FACSCaliber (BD) instrument equipped with an argon laser emitting at 488 nm was used for flow cytometric analysis. Fluorescence data were collected with logarithmic amplifiers. The population percent fluorescence of 5×10^3 events was calculated using CellQuest software (BD).

[2] = system: R. oryzae germlings on endothelial cells; assay: 51Cr release assay of R. oryzae-induced endothelial cell damage
Protocol: R. oryzae-induced endothelial or CHO cell damage was quantified by using a chromium (^51Cr) release assay (Ibrahim et al., J Infect Dis. 198(7):1083-1090 (2008)). Briefly, endothelial cells or CHO cells grown in 96-well tissue culture plates containing detachable wells were incubated with 1 μCi per well of Na2^51CrO4 (ICN) in M-199 medium (for endothelial cells) or Alpha minimum Eagle's medium (for CHO cells) for 16 hours.
On the day of the experiment, the unincorporated ^51Cr was aspirated, and the wells were washed twice with warmed HBSS (Irvine Scientific). Cells were infected with fungal germlings (1.5×10^5 germinated for 1 hour) suspended in 150 μl RPMI 1640 medium (Irvine Scientific) supplemented with glutamine. Spontaneous ^51Cr release was determined by incubating endothelial or CHO cells in RPMI 1640 medium supplemented with glutamine without R. oryzae. […] The amount of ^51Cr in the aspirate and the detached well was determined by gamma counting. […] After the data were corrected for variations in the amount of tracer incorporated in each well, the percentage of specific endothelial cell release of ^51Cr was calculated by the following formula: [(experimental release×2)−(spontaneous release×2)]/[total incorporation−(spontaneous release×2)]. […]

[3] = 15 or 50 μM FeCl3, vs no exogenous FeCl3

With `C=C1[C@@H](C)[C@H]2[C@H](Cc3ccccc3)NC(=O)[C@]23[C@H](OC(C)=O)/C=C/[C@@](C)(O)C(=O)[C@@H](C)C/C=C/[C@H]3[C@@H]1O` [cytochalasin D] the “Reduction of endothelial cell endocytosis of R. oryzae” value [1] was “approximately 70%”.

For `[Cl][Fe]([Cl])[Cl]` [FeCl3], the “Increase in endothelial cell GRP78 expression” value (GRP78 transcript; FeCl3 at iron concentrations of DKA sera, 5 hours, vs no iron) was no more than 12 fold, the “Increase of surface expression of GRP78 protein” value (GRP78) was 150% and the “Enhancement of R. oryzae-induced endocytosis” value [1, 3] was 80%. The “Enhancement of R. oryzae-induced endothelial cell damage” value [2, 3] was 80%.

For `c1cnc2c(c1)ccc1cccnc12` [phenanthroline], the “Endothelial cell GRP78 expression in the setting of acidosis” value (GRP78 transcript; pH 6.8 to 7.4, 5 hours, with phenanthroline) was “reversed GRP78 expression back to normal levels”, the “Reduction of endothelial cell endocytosis of R. oryzae” value [1] was “approximately 70%” and the “R. oryzae-induced endothelial cell damage” value ([2]; varying concentrations of phenanthroline for 16 h, removed before assay) was “prevented R. oryzae-induced endothelial cell damage in a concentration-dependent manner”.

In the case of hemin [exogenous iron], the “Effect on the inhibition of endocytosis caused by the iron chelator phenanthroline” value ([1]; hemin 20 μM added 2 hours before phenanthroline) was “completely reversed the inhibition of endocytosis”.

In the case of `OC[C@@H](O)[C@@H](O)[C@H](O)[C@H](O)CO` [mannitol], the GRP78 expression (GRP78 transcript; mannitol 1, 4, and 8 mg/ml for 20 hours) was “No change in GRP78 expression”.

In the case of `CC[C@H](C)C(=O)O[C@H]1C[C@@H](C)C=C2C=C[C@H](C)[C@H](CC[C@@H]3C[C@@H](O)CC(=O)O3)[C@H]21` [lovastatin], the GRP78 expression (GRP78 transcript; lovastatin 5, 20, or 40 μg/ml for 20 hours) was “No evidence of alterations in expression”.
